Assay results taken from patent publication US9708314B2, “Heterocyclic amide compound” (NISSAN CHEMICAL INDUSTRIES, LTD., priority 2013, dated 2017).

Columns and labels:
Assay type in all cases: in vivo
[1] = system: Alopecurus myosuroides; assay: Test Example 4: herbicidal effect by application to foliage (diluvial soil, plastic box); details: for J (Alopecurus myosuroides) herbicidal effect grade: foliage application
Procedure, shortened: (§1)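 Greenhouse plants (25° C. to 30° C., 14 d, diluvial soil) receive a foliar spray of water-diluted emulsifiable formulation at defined g/ha. Grading after 3 weeks uses a six-step herbicidal-ratio scale, with 4 covering 70% to <90% and 1 covering 5% to <20%.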

[2] = system: Lolium multiflorum Lam.; assay: as above; details: for K (Lolium multiflorum Lam.) herbicidal effect grade: foliage application
Procedure, shortened: as §1

[3] = system: Veronica persica; assay: as above; details: for R (Veronica persica) herbicidal effect grade: foliage application
Procedure, shortened: as §1

[4] = system: Apera spica-venti.; assay: as above; details: for L (Apera spica-venti.) herbicidal effect grade: foliage application
Procedure, shortened: as §1

[5] = system: Amaranthus retroflexus; assay: as above; details: for N (Amaranthus retroflexus) herbicidal effect grade: Application herbicide amount 320 g/ha, foliage application
Procedure, shortened: as §1

[6] = system: Abutilon theophrasti; assay: as above; details: for M (Abutilon theophrasti) herbicidal effect grade: foliage application
Procedure, shortened: as §1

[7] = system: Digitaria ciliaris; assay: as above; details: for F (Digitaria ciliaris) herbicidal effect grade: foliage application
Procedure, shortened: as §1

[8] = system: Avena fatua; assay: as above; details: for I (Avena fatua) herbicidal effect grade: foliage application
Procedure, shortened: as §1

[9] = system: Chenopodium album; assay: as above; details: for O (Chenopodium album) herbicidal effect grade: foliage application
Procedure, shortened: as §1

[10] = system: Echinochloa crus-galli var. crus-galli; assay: as above; details: for H (Echinochloa crus-galli var. crus-galli) herbicidal effect grade: foliage application
Procedure, shortened: as §1

[11] = system: Stellaria media; assay: as above; details: for P (Stellaria media) herbicidal effect grade: Application herbicide amount 320 g/ha, foliage application
Procedure, shortened: as §1

[12] = system: Galium spurium; assay: as above; details: for Q (Galium spurium) herbicidal effect grade: foliage application
Procedure, shortened: as §1

[13] = system: Brassica campestris L.; assay: Test Example 4: effect on crop by application to foliage (diluvial soil, plastic box); details: for g (Brassica campestris L.) effect on crop grade: foliage application
Procedure, shortened: as §1

[14] = system: Zea mays; assay: as above; details: for c (Zea mays) effect on crop grade: foliage application
Procedure, shortened: as §1

[15] = system: Triticum aestivum; assay: as above; details: for e (Triticum aestivum) effect on crop grade: foliage application
Procedure, shortened: as §1

[16] = system: Beta vulgaris ssp. vulgaris; assay: as above; details: for f (Beta vulgaris ssp. vulgaris) effect on crop grade: foliage application
Procedure, shortened: as §1

[17] = system: Glycine max; assay: as above; details: for d (Glycine max) effect on crop grade: foliage application
Procedure, shortened: as §1

[18] = system: Scirpus juncoides; assay: Test Example 2: herbicidal activity, application during weed generation in submerged conditions; details: Eighteenth Table; application herbicide amount 320 g/ha
Procedure, shortened: (§2)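 Seeds were sown together in alluvial soil kept under 4 cm of water and grown at 25 °C to 30 °C. Once plants reached the one- to two-leaf stage, the diluted emulsion was applied to the water surface at a predetermined g/ha amount, and effects were rated 0–5 after three weeks.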

[19] = system: Monochoria vaginalis; assay: as above; details: Eighteenth Table; application herbicide amount 320 g/ha
Procedure, shortened: as §2

[20] = system: Echinochloa oryzacola Vasing.; assay: as above; details: Eighteenth Table; application herbicide amount 320 g/ha
Procedure, shortened: as §2

[21] = system: directly sowed Oryza sativa; assay: Test Example 4: effect on crop by application to foliage (diluvial soil, plastic box)
Procedure, shortened: as §1

[22] = Application herbicide amount 320 g/ha
[23] = Application herbicide amount 320 g/ha, effect on crop
[24] = application to foliage, application herbicide amount 320 g/ha

SMILES	J (Alopecurus myosuroides) herbicidal effect grade [1, 22]	K (Lolium multiflorum Lam.) herbicidal effect grade [2, 22]	R (Veronica persica) herbicidal effect grade [3, 22]	L (Apera spica-venti.) herbicidal effect grade [4, 22]	N (Amaranthus retroflexus) herbicidal effect grade [5]	M (Abutilon theophrasti) herbicidal effect grade [6, 22]	F (Digitaria ciliaris) herbicidal effect grade [7, 22]	I (Avena fatua) herbicidal effect grade [8, 22]	O (Chenopodium album) herbicidal effect grade [9, 22]	H (Echinochloa crus-galli var. crus-galli) herbicidal effect grade [10, 22]	P (Stellaria media) herbicidal effect grade [11]	Q (Galium spurium) herbicidal effect grade [12, 22]	g (Brassica campestris L.) effect on crop grade [13, 22]	c (Zea mays) effect on crop grade [14, 22]	e (Triticum aestivum) effect on crop grade [15, 22]	f (Beta vulgaris ssp. vulgaris) effect on crop grade [16, 22]	d (Glycine max) effect on crop grade [17, 22]	B (Scirpus juncoides) herbicidal ratio grade [18]	C (Monochoria vaginalis) herbicidal ratio grade [19]	A (Echinochloa oryzicola Vasing.) herbicidal ratio grade [20]	other results
CC(C)c1nnc2c(C(=O)Nc3nnc(C[S+](C)[O-])o3)ccc(C(F)(F)F)n12 (stereo not drawn) [1-143]	0 (Herbicidal ratio of 5% or less (almost no effect))	0 (Herbicidal ratio of 5% or less (almost no effect))	3 (Herbicidal ratio of 40% or more and less than 70%)	0 (Herbicidal ratio of 5% or less (almost no effect))	2 (Herbicidal ratio of 20% or more and less than 40%)	2 (Herbicidal ratio of 20% or more and less than 40%)	2 (Herbicidal ratio of 20% or more and less than 40%)	0 (Herbicidal ratio of 5% or less (almost no effect))	4 (Herbicidal ratio of 70% or more and less than 90%)	4 (Herbicidal ratio of 70% or more and less than 90%)	3 (Herbicidal ratio of 40% or more and less than 70%)	2 (Herbicidal ratio of 20% or more and less than 40%)	3 (Herbicidal ratio of 40% or more and less than 70%)	0 (Herbicidal ratio of 5% or less (almost no effect))	0 (Herbicidal ratio of 5% or less (almost no effect))	2 (Herbicidal ratio of 20% or more and less than 40%)	1 (Herbicidal ratio of 5% or more and less than 20%)				
Cc1nnc(NC(=O)c2ccc(C(F)(F)F)n3c(N(C)C(C)C)nnc23)o1 [1-132]	1 (Herbicidal ratio of 5% or more and less than 20%)	1 (Herbicidal ratio of 5% or more and less than 20%)	4 (Herbicidal ratio of 70% or more and less than 90%)	2 (Herbicidal ratio of 20% or more and less than 40%)	3 (Herbicidal ratio of 40% or more and less than 70%)	4 (Herbicidal ratio of 70% or more and less than 90%)	4 (Herbicidal ratio of 70% or more and less than 90%)	1 (Herbicidal ratio of 5% or more and less than 20%)	5 (Herbicidal ratio of 90% or more (almost completely withered))	5 (Herbicidal ratio of 90% or more (almost completely withered))		2 (Herbicidal ratio of 20% or more and less than 40%)	4 (Herbicidal ratio of 70% or more and less than 90%)	2 (Herbicidal ratio of 20% or more and less than 40%)	1 (Herbicidal ratio of 5% or more and less than 20%)	5 (Herbicidal ratio of 90% or more (almost completely withered))	3 (Herbicidal ratio of 40% or more and less than 70%)	4 (Herbicidal ratio of 70% or more and less than 90%)	4 (Herbicidal ratio of 70% or more and less than 90%)	4 (Herbicidal ratio of 70% or more and less than 90%)	
Cc1nnc(NC(=O)c2ccc(C(F)(F)F)n3c(CC4CC4)nnc23)o1 [1-104]																		3 (Herbicidal ratio of 40% or more and less than 70%)	3 (Herbicidal ratio of 40% or more and less than 70%)	4 (Herbicidal ratio of 70% or more and less than 90%)	J [1, 22]: 1 (Herbicidal ratio of 5% or more and less than 20%); K [2, 22]: 1 (Herbicidal ratio of 5% or more and less than 20%); R [3, 22]: 4 (Herbicidal ratio of 70% or more and less than 90%); L [4, 22]: 2 (Herbicidal ratio of 20% or more and less than 40%); M [6, 22]: 4 (Herbicidal ratio of 70% or more and less than 90%); F [7, 22]: 5 (Herbicidal ratio of 90% or more (almost completely withered)); I [8, 22]: 4 (Herbicidal ratio of 70% or more and less than 90%); O [9, 22]: 5 (Herbicidal ratio of 90% or more (almost completely withered)); H [10, 22]: 5 (Herbicidal ratio of 90% or more (almost completely withered)); Q [12, 22]: 3 (Herbicidal ratio of 40% or more and less than 70%); d [21, 23]: 4 (Herbicidal ratio of 70% or more and less than 90%); g [13, 23]: 4 (Herbicidal ratio of 70% or more and less than 90%); b [14, 23]: 0 (Herbicidal ratio of 5% or less (almost no effect)); e [15, 23]: 2 (Herbicidal ratio of 20% or more and less than 40%); f [16, 23]: 4 (Herbicidal ratio of 70% or more and less than 90%); c [17, 23]: 3 (Herbicidal ratio of 40% or more and less than 70%)
CSCCNc1nnc2c(C(=O)Nc3nnc(C)o3)ccc(C(F)(F)F)n12 [1-130]	1 (Herbicidal ratio of 5% or more and less than 20%)	1 (Herbicidal ratio of 5% or more and less than 20%)	3 (Herbicidal ratio of 40% or more and less than 70%)	1 (Herbicidal ratio of 5% or more and less than 20%)	3 (Herbicidal ratio of 40% or more and less than 70%)	3 (Herbicidal ratio of 40% or more and less than 70%)	4 (Herbicidal ratio of 70% or more and less than 90%)	1 (Herbicidal ratio of 5% or more and less than 20%)	5 (Herbicidal ratio of 90% or more (almost completely withered))	5 (Herbicidal ratio of 90% or more (almost completely withered))	3 (Herbicidal ratio of 40% or more and less than 70%)	4 (Herbicidal ratio of 70% or more and less than 90%)	4 (Herbicidal ratio of 70% or more and less than 90%)	0 (Herbicidal ratio of 5% or less (almost no effect))	0 (Herbicidal ratio of 5% or less (almost no effect))	5 (Herbicidal ratio of 90% or more (almost completely withered))	3 (Herbicidal ratio of 40% or more and less than 70%)				
COc1ccc(CN(C)c2nnc3c(C(=O)Nc4nnc(C)o4)ccc(C(F)(F)F)n23)cc1 [1-167]																					J: herbicidal effect on Alopecurus myosuroides [1, 24]: 0 (Herbicidal ratio of 5% or less (almost no effect)); K: herbicidal effect on Lolium multiflorum Lam. [2, 24]: 1 (Herbicidal ratio of 5% or more and less than 20%); R: herbicidal effect on Veronica persica [3, 24]: 4 (Herbicidal ratio of 70% or more and less than 90%); L: herbicidal effect on Apera spica-venti. [4, 24]: 1 (Herbicidal ratio of 5% or more and less than 20%); N: herbicidal effect on Amaranthus retroflexus [5, 24]: 2 (Herbicidal ratio of 20% or more and less than 40%); M: herbicidal effect on Abutilon theophrasti [6, 24]: 2 (Herbicidal ratio of 20% or more and less than 40%); F: herbicidal effect on Digitaria ciliaris [7, 24]: 0 (Herbicidal ratio of 5% or less (almost no effect)); I: herbicidal effect on Avena fatua [8, 24]: 1 (Herbicidal ratio of 5% or more and less than 20%); O: herbicidal effect on Chenopodium album [9, 24]: 5 (Herbicidal ratio of 90% or more (almost completely withered)); H: herbicidal effect on Echinochloa crus-galli var. crus-galli [10, 24]: 2 (Herbicidal ratio of 20% or more and less than 40%); P: herbicidal effect on Stellaria media [11, 24]: 5 (Herbicidal ratio of 90% or more (almost completely withered)); Q: herbicidal effect on Galium spurium [12, 24]: 2 (Herbicidal ratio of 20% or more and less than 40%); b: effect on crop, directly sowed Oryza sativa [21, 24]: 0 (Herbicidal ratio of 5% or less (almost no effect)); g: effect on crop, Brassica campestris L. [13, 24]: 0 (Herbicidal ratio of 5% or less (almost no effect)); c: effect on crop, Zea mays [14, 24]: 0 (Herbicidal ratio of 5% or less (almost no effect)); e: effect on crop, Triticum aestivum [15, 24]: 0 (Herbicidal ratio of 5% or less (almost no effect)); f: effect on crop, Beta vulgaris ssp. vulgaris [16, 24]: 5 (Herbicidal ratio of 90% or more (almost completely withered)); d: effect on crop, Glycine max [17, 24]: 1 (Herbicidal ratio of 5% or more and less than 20%)
